{"source": "patent US20240025919A1", "about": "“AZA-TETRACYCLIC OXAZEPINE COMPOUNDS AND USES THEREOF” (Genentech, Inc., priority 2022, published 2024)", "key": {"KRAS WT": {"molecular_target": "KRAS WT (Homo sapiens (Human), UniProt P01116)", "sequence (P01116-2 other isoform, or with tags, fused parts or gaps)": "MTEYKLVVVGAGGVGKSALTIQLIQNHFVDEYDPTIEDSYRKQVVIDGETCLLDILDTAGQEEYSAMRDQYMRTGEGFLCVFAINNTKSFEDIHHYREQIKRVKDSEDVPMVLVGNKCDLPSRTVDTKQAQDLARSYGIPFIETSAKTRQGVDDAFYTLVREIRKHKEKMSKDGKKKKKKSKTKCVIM", "assay": "KRAS WT Biochemical Assay, BODIPY-GDP Exchange TR-FRET (Example 501; 3 nM KRAS WT, 3 nM SOS1, 60-minute incubation)", "experimental": "Example 501: KRAS WT Biochemical Assay, BODIPY-GDP Exchange TR-FRET. Biochemical compound potencies are assessed by evaluating inhibition of SOS1-mediated nucleotide exchange in KRAS WT. In this assay, the SOS1-promoted exchange of fluorescently-labeled GDP (BOPIDY-GDP) is monitored by time-resolved fluorescence resonance energy transfer (TR-FRET). Compounds solubilized in DMSO are dispensed as concentration series into 384-well white assay plates, and 5 uL assay buffer (20 mM HEPES, pH 7.5, 50 mM NaCl, 10 mM MgCl2, 0.01% Tween-20 and 1 mM dithiothreitol) is added just prior to the start of the assay. A preformed complex of 3 nM biotin-tagged recombinant human KRAS WT and 0.3 nM terbium-labeled streptavidin (CisBIO) prepared in 5 uL/well assay buffer is added and allowed to incubate for 10-minutes at room temperature. The reaction is initiated with the addition of 5 uL 3 nM recombinant human SOS1 and 300 nM BODIPY-GDP in assay buffer. After a 60-minute incubation, the fluorescence is measured with excitation at 337 nm and emission at 490 and 520 nm. The TR-FRET ratio is determined as the fluorescence at 520 nm divided by the fluorescence at 490 nm multiplied by 10,000. The results are normalized to percent inhibition based on control samples: DMSO (0% inhibition) and control compound at a concentration that inhibits completely (100% inhibition). The normalized TR-FRET results are plotted against compound concentration, and the data are fit to a 4-parameter Hill equation to determine the IC50 values."}, "KRAS G12D": {"molecular_target": "KRAS G12D (Homo sapiens (Human), UniProt P01116, G12D)", "sequence (P01116-2 other isoform, or with tags, fused parts or gaps G12D)": "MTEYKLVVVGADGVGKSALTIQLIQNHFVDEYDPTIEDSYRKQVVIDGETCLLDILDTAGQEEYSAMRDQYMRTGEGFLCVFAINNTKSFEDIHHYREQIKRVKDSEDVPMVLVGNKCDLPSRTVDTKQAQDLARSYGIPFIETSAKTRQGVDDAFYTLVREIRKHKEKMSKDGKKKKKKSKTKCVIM", "assay": "KRAS G12D LoEnz Biochemical Assay, BODIPY-GDP Exchange TR-FRET (SOS1-mediated nucleotide exchange)", "settings": "read-out: KRas (G12D) GDP HTRF IC50", "experimental": "Example 500: KRAS G12D LoEnz Biochemical Assay, BODIPY-GDP Exchange TR-FRET. Biochemical compound potencies are assessed by evaluating inhibition of SOS1I-mediated nucleotide exchange in KRAS G121D. In this assay, the SOS1-promoted exchange of fluorescently-labeled GDP (BOPIDY-GDP) is monitored by time-resolved fluorescence resonance energy transfer (TR-FRET). Compounds solubilized in DMS0 are dispensed as concentration series into 384-well white assay plates. A preformed complex of biotin-tagged recombinant human KRAS (0.06 nM mutant G1 2D) and 0.06 nM terbium-labeled streptavidin (CisBIO) prepared in 10 uL/well assay buffer (20 mM HEPES, pH 7.5, 50 mM NaCl, 10 mMMMgCl2, 0.0100 Tween-20 and 1 mM dithiothreitol) is added and allowed to incubate for 10-minutes at room temperature. The reaction is initiated with the addition of 5 uL 300 nM recombinant human SOS1 and 300 nM BODIPY-GDP in assay buffer. After a 120-minute incubation, the fluorescence is measured with excitation at 337 nm and emission at 490 and 520 nm. The TR-FRET ratio is determined as the fluorescence at 520 nm divided by the fluorescence at 490 nm multiplied by 10,000. The results are normalized to percent inhibition based on control samples: DMSO (0% inhibition) and control compound at a concentration that inhibits completely (100% inhibition). The normalized TR-FRET results are plotted against compound concentration, and the data are fit to a 4-parameter Hill equation to determine the IC50 values."}, "[1]": {"settings": "read-out: KRas(wt) GDP HTRF IC50"}}, "note": "pIC50: −log10 of the molar value. Where two headings read alike, the source gives them in different places.", "data": [{"smiles": "Cc1nc(N)cc(-c2nc3c4c(nc(OCC56CCCN5CC(F)C6)nc4c2F)N2CC4CCC(N4)[C@H]2[C@@H](C(F)(F)F)O3)c1C(F)(F)F", "note": "(stereo in doubt) [Compound 243, 4-((6R,9S)-1-fluoro-12-(((2S,7aR)-2-fluorotetrahydro-1H-pyrrolizin-7a(5H)-yl)methoxy)-5-(trifluoromethyl)-5a,6,7,8,9,10-hexahydro-5H-4-oxa-3,10a,11,13,14-pentaaza-6,9-methanonaphtho[1,8-ab]heptalene-2-yl)-6-methyl-5-(trifluoromethyl)pyridin-2-amine]", "values": [{"measurement": "pIC50", "setting": "KRAS WT; read-out: KRas HTRF IC50", "result": 5.40}, {"measurement": "pIC50", "setting": "KRAS G12D", "result": 6.24}]}, {"smiles": "Oc1cc(-c2nc3c4c(nc(OC[C@@]56CCCN5C[C@H](F)C6)nc4c2F)N2C[C@H]4CC[C@H](N4)[C@H]2CO3)c2c(F)cccc2c1", "note": "[Compound 1, 5-Fluoro-4-((5aS,6S,9R)-1-fluoro-12-(((2R,7aS)-2-fluorotetrahydro-1H-pyrrolizin-7a(5H)-yl)methoxy)-5a,6,7,8,9,10-hexahydro-5H-4-oxa-3,10a,11,13,14-pentaaza-6,9-methanonaphtho[1,8-ab]heptalen-2-yl)naphthalen-2-ol]", "values": [{"measurement": "pIC50", "setting": "KRAS WT; [1]", "result": 8.09}, {"measurement": "pIC50", "setting": "KRAS G12D", "result": 9.92}]}, {"smiles": "Cn1ncc2ccc(F)c(-c3nc4c5c(nc(OC[C@@]67CCCN6C[C@H](F)C7)nc5c3F)N3C[C@H]5CC[C@H](N5)[C@H]3CO4)c21", "note": "[Compound 4, (5aS,6S,9R)-1-fluoro-2-(6-fluoro-1-methyl-1H-indazol-7-yl)-12-(((2R,7aS)-2-fluorotetrahydro-1H-pyrrolizin-7a(5H)-yl)methoxy)-5a,6,7,8,9,10-hexahydro-5H-4-oxa-3,10a,11,13,14-pentaaza-6,9-methanonaphtho[1,8-ab]heptalene]", "values": [{"measurement": "pIC50", "setting": "KRAS WT; [1]", "result": 5.02}, {"measurement": "pIC50", "setting": "KRAS G12D", "result": 6.05}]}, {"smiles": "CCc1cccc2cc(O)cc(-c3nc4c5c(nc(OC[C@@]67CCCN6C[C@H](F)C7)nc5c3F)N3C[C@H]5CC[C@H](N5)[C@H]3CO4)c12", "note": "[Compound 5, 5-ethyl-4-((5aS,6S,9R)-1-fluoro-12-(((2R,7aS)-2-fluorotetrahydro-1H-pyrrolizin-7a(5H)-yl)methoxy)-5a,6,7,8,9,10-hexahydro-5H-4-oxa-3,10a,11,13,14-pentaaza-6,9-methanonaphtho[1,8-ab]heptalen-2-yl)naphthalen-2-ol]", "values": [{"measurement": "pIC50", "setting": "KRAS WT; [1]", "result": 8.67}, {"measurement": "pIC50", "setting": "KRAS G12D", "result": 10.22}]}, {"smiles": "C[C@@H]1Oc2nc(-c3cccc4cccc(Cl)c34)c(F)c3nc(OC[C@@]45CCCN4C[C@H](F)C5)nc(c23)N2C[C@H]3CC[C@H](N3)[C@@H]12", "note": "[Compound 8, (5S,5aS,6S,9R)-2-(8-chloronaphthalen-1-yl)-1-fluoro-12-(((2R,7aS)-2-fluorotetrahydro-1H-pyrrolizin-7a(5H)-yl)methoxy)-5-methyl-5a,6,7,8,9,10-hexahydro-5H-4-oxa-3,10a,11,13,14-pentaaza-6,9-methanonaphtho[1,8-ab]heptalene]", "values": [{"measurement": "pIC50", "setting": "KRAS WT; [1]", "result": 6.84}, {"measurement": "pIC50", "setting": "KRAS G12D", "result": 8.75}]}, {"smiles": "C[C@@H]1Oc2nc(-c3cccc(N)c3F)c(F)c3nc(OC[C@@]45CCCN4C[C@H](F)C5)nc(c23)N2C[C@H]3CC[C@H](N3)[C@@H]12", "note": "[Compound 12, 2-fluoro-3-((5S,5aS,6S,9R)-1-fluoro-12-(((2R,7aS)-2-fluorotetrahydro-1H-pyrrolizin-7a(5H)-yl)methoxy)-5-methyl-5a,6,7,8,9,10-hexahydro-5H-4-oxa-3,10a,11,13,14-pentaaza-6,9-methanonaphtho[1,8-ab]heptalen-2-yl)aniline]", "values": [{"measurement": "pIC50", "setting": "KRAS WT; [1]", "result": 4.43}, {"measurement": "pIC50", "setting": "KRAS G12D", "result": 6.42}]}, {"smiles": "C[C@@H]1Oc2nc(-c3cc(N)c(F)cc3C(F)(F)F)c(F)c3nc(OC[C@@]45CCCN4C[C@H](F)C5)nc(c23)N2C[C@H]3CC[C@H](N3)[C@@H]12", "note": "[Compound 14, 2-fluoro-5-((5S,5aS,6S,9R)-1-fluoro-12-(((2R,7aS)-2-fluorotetrahydro-1H-pyrrolizin-7a(5H)-yl)methoxy)-5-methyl-5a,6,7,8,9,10-hexahydro-5H-4-oxa-3,10a,11,13,14-pentaaza-6,9-methanonaphtho[1,8-ab]heptalen-2-yl)-4-(trifluoromethyl)aniline]", "values": [{"measurement": "pIC50", "setting": "KRAS WT; [1]", "result": 8.18}, {"measurement": "pIC50", "setting": "KRAS G12D", "result": 9.59}]}, {"smiles": "C[C@@H]1Oc2nc(-c3cc(N)c(F)c(F)c3C(F)(F)F)c(F)c3nc(OC[C@@]45CCCN4C[C@H](F)C5)nc(c23)N2C[C@H]3CC[C@H](N3)[C@@H]12", "note": "[Compound 15, 2,3-difluoro-5-((5S,5aS,6S,9R)-1-fluoro-12-(((2R,7aS)-2-fluorotetrahydro-1H-pyrrolizin-7a(5H)-yl)methoxy)-5-methyl-5a,6,7,8,9,10-hexahydro-5H-4-oxa-3,10a,11,13,14-pentaaza-6,9-methanonaphtho[1,8-ab]heptalen-2-yl)-4-(trifluoromethyl)aniline]", "values": [{"measurement": "pIC50", "setting": "KRAS WT; [1]", "result": 9.35}, {"measurement": "pIC50", "setting": "KRAS G12D", "result": 10.15}]}, {"smiles": "Cc1cc(-c2nc3c4c(nc(OC[C@@]56CCCN5C[C@H](F)C6)nc4c2F)N2C[C@H]4CC[C@H](N4)[C@H]2[C@H](C)O3)c(F)c(N)c1F", "note": "[Compound 18, 2,6-difluoro-3-((5S,5aS,6S,9R)-1-fluoro-12-(((2R,7aS)-2-fluorotetrahydro-1H-pyrrolizin-7a(5H)-yl)methoxy)-5-methyl-5a,6,7,8,9,10-hexahydro-5H-4-oxa-3,10a,11,13,14-pentaaza-6,9-methanonaphtho[1,8-ab]heptalen-2-yl)-5-methylaniline]", "values": [{"measurement": "pIC50", "setting": "KRAS WT; [1]", "result": 5.11}, {"measurement": "pIC50", "setting": "KRAS G12D", "result": 6.76}]}, {"smiles": "Cc1c(F)c(N)cc(-c2nc3c4c(nc(OC[C@]56CCN5CC(F)(F)C6)nc4c2F)N2C[C@H]4CC[C@H](N4)[C@H]2[C@H](C)O3)c1C(F)(F)F", "note": "[Compound 24, 5-((5S,5aS,6S,9R)-12-(((R)-3,3-difluoro-1-azabicyclo[3.2.0]heptan-5-yl)methoxy)-1-fluoro-5-methyl-5a,6,7,8,9,10-hexahydro-5H-4-oxa-3,10a,11,13,14-pentaaza-6,9-methanonaphtho[1,8-ab]heptalen-2-yl)-2-fluoro-3-methyl-4-(trifuoromethyl)aniline]", "values": [{"measurement": "pIC50", "setting": "KRAS WT; [1]", "result": 8.48}, {"measurement": "pIC50", "setting": "KRAS G12D", "result": 9.54}]}, {"smiles": "C[C@@H]1Oc2nc(-c3cc(O)cc4ccccc34)c(F)c3nc(OC[C@]45CCN4CC(F)(F)C5)nc(c23)N2C[C@H]3CC[C@H](N3)[C@@H]12", "note": "[Compound 25, 4-((5S,5aS,6S,9R)-12-(((R)-3,3-difluoro-1-azabicyclo[3.2.0]heptan-5-yl)methoxy)-1-fluoro-5-methyl-5a,6,7,8,9,10-hexahydro-5H-4-oxa-3,10a,11,13,14-pentaaza-6,9-methanonaphtho[1,8-ab]heptalen-2-yl)naphthalen-2-ol]", "values": [{"measurement": "pIC50", "setting": "KRAS WT; [1]", "result": 6.90}, {"measurement": "pIC50", "setting": "KRAS G12D", "result": 8.69}]}, {"smiles": "Cc1c(F)c(N)cc(-c2nc3c4c(nc(OC[C@@H]5C[C@@H](F)CN5C)nc4c2F)N2C[C@H]4CC[C@H](N4)[C@H]2[C@H](C)O3)c1C(F)(F)F", "note": "[Compound 26, 2-Fluoro-5-((5S,5aS,6S,9R)-1-fluoro-12-(((2S,4R)-4-fluoro-1-methylpyrrolidin-2-yl)methoxy)-5-methyl-5a,6,7,8,9,10-hexahydro-5H-4-oxa-3,10a,11,13,14-pentaaza-6,9-methanonaphtho[1,8-ab]heptalen-2-yl)-3-methyl-4-(trifluoromethyl)aniline]", "values": [{"measurement": "pIC50", "setting": "KRAS WT; [1]", "result": 8.22}, {"measurement": "pIC50", "setting": "KRAS G12D", "result": 9.59}]}, {"smiles": "C[C@@H]1Oc2nc(-c3cccc4cccc(Cl)c34)c(F)c3nc(OC[C@@]45CCCN4CC4(CC4(F)F)C5)nc(c23)N2C[C@H]3CC[C@H](N3)[C@@H]12", "note": "(stereo partly drawn) [Compound 27, (5S,5aS,6S,9R)-2-(8-chloronaphthalen-1-yl)-12-(((7a′S)-2,2-difluorodihydro-1′H,3′H-spiro[cyclopropane-1,2′-pyrrolizin]-7a′(5′H)-yl)methoxy)-1-fluoro-5-methyl-5a,6,7,8,9,10-hexahydro-5H-4-oxa-3,10a,11,13,14-pentaaza-6,9-methanonaphtho[1,8-ab]heptalene]", "values": [{"measurement": "pIC50", "setting": "KRAS WT; [1]", "result": 7.19}, {"measurement": "pIC50", "setting": "KRAS G12D", "result": 9.14}]}]}
